Assay results reported in the supplement of paper PMC13380429.
± gives the standard deviation of the averaged measurements.

What was measured:
Conditions in all cases: 72 h
[1] = system: Calu-3; assay: cell viability relative to DMSO; higher = less toxic
[2] = system: U2OS; assay: as above
[3] = system: Vero E6; assay: as above
[4] = system: HepG2; assay: as above
[5] = system: Caco-2; assay: as above
[6] = system: Calu-3; assay: drug sensitivity score (DSS) for viability; higher = more toxic; extreme values may be limits of the assay
[7] = system: U2OS; assay: as above
[8] = system: Vero E6; assay: as above
[9] = system: HepG2; assay: as above
[10] = system: Caco-2; assay: as above
[11] = system: Calu-3; assay: relative viability EC50 (midpoint between 100% and the lowest measured viability); higher = less toxic
[12] = system: U2OS; assay: as above
[13] = system: Vero E6; assay: as above
[14] = system: HepG2; assay: as above
[15] = system: Caco-2; assay: as above

SMILES	cell viability ([1]; 1 nM) [%]	cell viability ([1]; 10 nM) [%]	cell viability ([1]; 100 nM) [%]	cell viability ([1]; 1000 nM) [%]	cell viability ([1]; 10000 nM) [%]	cell viability ([2]; 1 nM) [%]	cell viability ([2]; 10 nM) [%]	cell viability ([2]; 100 nM) [%]	cell viability ([2]; 1000 nM) [%]	cell viability ([2]; 10000 nM) [%]	cell viability ([3]; 1 nM) [%]	cell viability ([3]; 10 nM) [%]	cell viability ([3]; 100 nM) [%]	cell viability ([3]; 1000 nM) [%]	cell viability ([3]; 10000 nM) [%]	cell viability ([4]; 1 nM) [%]	cell viability ([4]; 10 nM) [%]	cell viability ([4]; 100 nM) [%]	cell viability ([4]; 1000 nM) [%]	cell viability ([4]; 10000 nM) [%]	cell viability ([5]; 1 nM) [%]	cell viability ([5]; 10 nM) [%]	cell viability ([5]; 100 nM) [%]	cell viability ([5]; 1000 nM) [%]	cell viability ([5]; 10000 nM) [%]	drug sensitivity score [6]	drug sensitivity score [7]	drug sensitivity score [8]	drug sensitivity score [9]	drug sensitivity score [10]	relative viability EC50 [11] [µM]	relative viability EC50 [12] [µM]	relative viability EC50 [13] [µM]	relative viability EC50 [14] [µM]	relative viability EC50 [15] [µM]
CC(C)(COP(=O)(O)OP(=O)(O)OC[C@H]1O[C@@H](n2cnc3c(N)ncnc32)[C@H](O)[C@@H]1OP(=O)(O)O)[C@@H](O)C(=O)NCCC(=O)NCCS [coenzyme-A]	100	101	96.7	99.8	102	96.9	100	103	103	104	108	102	92.4	104	98.9	109	96.6	111	96	98.4	100	100	102	97.8	110	0	0	0	0	0	> 10	> 10	> 10	> 10	> 10
CN(C)c1ccc(C(=C2C=CC(=[N+](C)C)C=C2)c2ccc(N(C)C)cc2)cc1 [crystal-violet]	100	94	104	31.5	2.1	96.6	100	96.4	17.4	-0.4	96	89.5	100	6.8	-0.4	112	89.9	111	10.7	3.6	86.3	94.9	80.9	21.4	4.4	13.3	15.6	16.9	15.7	16.9	0.715	0.477	0.383	0.432	0.295
CCC(CC)CC1(C(=O)Nc2ccccc2SC(=O)C(C)C)CCCCC1 [dalcetrapib]	96	95.4	103	90	97.8	96.9	97.1	108	98.3	104	98.4	99.2	101	102	101	88.6	103	88	98.6	90.2	99.9	97.1	94.3	93.7	107	0	0	0	0	0	> 10	> 10	> 10	> 10	> 10
Cc1nc(Nc2ncc(C(=O)Nc3c(C)cccc3Cl)s2)cc(N2CCN(CCO)CC2)n1 [dasatinib]	95.1	72	36.6	30.2	18.1	100	93.9	85	53.9	36.8	99	93.1	76.1	29.6	16.9	102	99	87.1	80.6	30.1	101	97.6	77	45.5	33.2	24.7	10.3	15.9	6.2	12.9	0.0245	0.33	0.218	1.62	0.201
CCc1cnn2c(NCc3ccc[n+]([O-])c3)cc(N3CCCC[C@H]3CCO)nc12 [dinaciclib]	103	83.2	39.9	39.3	39.6	99.3	56	3.6	4	5.4	101	100	14.8	7	4.5	99.9	55.6	5.7	6.4	6.4	100	77.9	19.9	25.1	30.8	21.6	35.2	27.5	34.5	28.2	0.0147	0.0107	0.044	0.0105	0.0147
CCOC(=S)SSC(=S)OCC [dixanthogen]	101	106	104	96	103	104	99.7	100	101	104	97.3	95.6	91.5	90.4	97.3	101	111	101	95.1	88.8	104	96.3	104	118	104	0	0	0	0.1	0	> 10	> 10	> 10	> 10	> 10
N[C@H](C(=O)O)[C@H](O)c1ccc(O)c(O)c1 [droxidopa]	98.8	98.1	99.7	87	102	98	95.6	97.5	97.2	100	95.1	102	96.8	98.5	104	90.7	95.5	98.8	114	104	95.4	102	103	96.4	102	0	0	0	0	0	> 10	> 10	> 10	> 10	> 10
Cc1cc(Cl)ccc1OCCCC(=O)NO [droxinostat]	96.3	92.8	88.8	97.6	86.8	96.9	106	96.6	100	79.5	103	99.4	98.8	97	86.7	100	92.4	90.7	97.4	87	104	101	101	102	86.5	0	0.6	0.3	0	0.1	> 10	> 10	> 10	> 10	> 10
O=C(NCCCN1CCOCC1)c1ccc(Cl)cc1 [eprobemide]	105	87.6	105	92.2	103	102	92.7	103	97.4	99.5	92.1	96.3	100	99.1	99.6	108	107	88.6	110	76.6	106	92.3	108	103	98.8	0	0	0	0.5	0	> 10	> 10	> 10	> 10	> 10
O=C(O)CSCC(=O)NC1CCSC1=O (stereo not given) [erdosteine]	99.8	96	102	92.9	98	100	105	96.2	97.9	101	111	96.9	104	91	96.8	90.5	102	94.3	93.8	102	107	102	97	84.8	96.9	0	0	0	0	0	> 10	> 10	> 10	> 10	> 10
O=C(CN1CCN(Cc2ccc3c(c2)OCO3)CC1)N1c2ccccc2Sc2ccccc21 [fenoverine]	92.8	109	99.2	103	110	95.1	97.2	98.1	94.9	96.7	87.4	98.2	98.4	95	84.7	94.6	104	101	90	90.3	106	110	105	98.5	82.7	0	0	0	0	0.6	> 10	> 10	> 10	> 10	> 10
CC(=O)OCC(=O)[C@@]12OC(C)(C)O[C@@H]1C[C@H]1[C@@H]3C[C@H](F)C4=CC(=O)C=C[C@]4(C)[C@@]3(F)[C@@H](O)C[C@@]12C [fluocinonide]	102 ± 7.5	97.2 ± 6	87.8 ± 1.1	98.2 ± 3.8	101 ± 3.7	98.5 ± 1.5	96 ± 3.3	95.2 ± 1.4	96.7 ± 4.4	98.7 ± 4.3	101 ± 7.7	93.6 ± 0.57	97.9 ± 13	96.7 ± 5.4	98.5 ± 2.8	100 ± 2.5	95.5 ± 6	101 ± 8.3	104 ± 1.2	100 ± 6.2	91.5	95.6	93.8	104	99.2	0	0	0	0	0	> 10	> 10	> 10	> 10	> 10
O=c1[nH]cnc2c([C@@H]3N[C@H](CO)[C@@H](O)[C@H]3O)c[nH]c12 [forodesine]	92.4	89	97.2	91.5	94.4	102	97.6	94.4	103	98	103	96.8	96.8	97.2	94.7	106	104	110	92.6	102	103	98.4	98.4	101	98.6	0	0	0	0	0	> 10	> 10	> 10	> 10	> 10
CC(C)CN(C[C@@H](OP(=O)(O)O)[C@H](Cc1ccccc1)NC(=O)O[C@H]1CCOC1)S(=O)(=O)c1ccc(N)cc1 [fosamprenavir]	113	103	107	98.2	108	101	94.8	95.9	94.2	109	102	101	99	100	96.5	99.8	106	102	93.5	98.7	93.7	91.5	96.5	98.1	99.6	0	0	0	0	0	> 10	> 10	> 10	> 10	> 10
COc1ccc(/C=C\c2cc(OC)c(OC)c(OC)c2)cc1OP(=O)(O)O [fosbretabulin]	104	120	90.2	61.4	45.9	98.4	105	94	25.4	19.5	103	100	38.4	13	7	104	108	96.7	21.9	23.9	104	116	55.4	51.1	45.4	8.1	14.6	24.1	14.7	15.2	0.457	0.316	0.0744	0.285	0.0584
N[C@@H](CSCCCO)C(=O)O [fudosteine]	102	111	107	96.8	115	96.4	101	97.2	102	108	97.7	92.7	99.6	94.1	100	93.1	83.3	96.1	88.8	105	96.1	93.9	97.3	97.2	106	0	0	0	0	0	> 10	> 10	> 10	> 10	> 10
CC(C)=CCC/C(C)=C/CC/C(C)=C/CCC(=O)OC/C=C(\C)CCC=C(C)C [geranyl-farnesylacetate]	99.1	94.6	96.8	93	96.4	98.4	95.3	102	96.7	103	104	102	94.4	105	115	101	107	90.8	112	110	95.6	95.8	106	91.4	98.9	0	0	0	0	0	> 10	> 10	> 10	> 10	> 10
CC(C)Cn1cnc2c(N)nc3ccccc3c21 [imiquimod]	103	96	102	94.5	103	92.7	101	94.3	100	105	93.1	93.2	99	88.9	100	93.6	95.5	100	109	112	96.4	92.9	105	97.7	100	0	0	0	0	0	> 10	> 10	> 10	> 10	> 10
CNC1CC(c2ccc(Cl)c(Cl)c2)c2ccccc21 (stereo not given) [indatraline]	102	96.3	93	107	89	100	102	94	102	90.1	99.4	95.4	96.4	99.4	91.7	97.6	96	96.4	99	92.7	99.7	103	95	103	86.8	0	0	0	0	0.1	> 10	> 10	> 10	> 10	> 10
Nc1nc(OCc2cc(Br)cs2)c2[nH]cnc2n1 [lomeguatrib]	106	103	95.8	102	93	101	94.6	106	100	99.7	105	104	95.4	102	99.9	87.7	99.9	84	98.8	100	96.9	90.9	110	96.1	100	0	0	0	0	0	> 10	> 10	> 10	> 10	> 10
Cc1c(F)cc(C(=O)NC2CC2)cc1-c1ccc(C(=O)NCC(C)(C)C)cn1 [losmapimod]	110	94.4	90.5	84	87.7	102	96.5	97.2	90.3	92.5	95.8	101	92.8	88.7	80.5	97.9	99.8	105	103	87.3	97	90.8	90.8	83.4	80.6	2.1	0	1.3	0	2.4	> 10	> 10	> 10	> 10	> 10
CN1CCN2c3c(cccc31)[C@@H]1CN(CCCC(=O)c3ccc(F)cc3)CC[C@@H]12 [lumateperone]	101	112	98.3	110	92.3	96.6	102	94.1	99.6	89.1	98.4	92.7	101	99.6	97.3	100	91.6	103	101	80.7	96.5	100	97.1	97.6	78.8	0	0	0	0.5	1	> 10	> 10	> 10	> 10	> 10
